Experimental findings from patent US5356915A, “Tetralones with pharmacological activity, compositions containing them” (J. Uriach & Cia. S.A., priority 1992, dated 1994) are described below.

The test system of test [1] is noradrenaline induced contractions in isolated rat portal vein. The experiment in a line: Inhibition of noradrenaline induced contractions in isolated rat portal vein (Test 1). The conditions noted are these: 0.5 h, noradrenaline 3 μM, 30 min incubation, 37° C., pH 7.2, mean of at least two experiments. How it is done: Test 1: Inhibition of noradrenaline induced contractions in isolated rat portal vein.
Portal vein was extracted from adult male rats (b.w. 200-250 g), that had been stunned and exanguinated. Vein strips were suspended in an isolated organ bath (Letica) containing a physiological saline solution continuously bubbled with 5% CO2, 95% O2 gas at 37° C., pH 7.2. Contractions were induced by noradrenaline (3 μM) and were reverted after thorough washing with physiological saline solution. Portal vein contraction was measured with an isometric force transducer at an initial tension of 1 g. After two equal contractions with noradrenaline, performed in order to measure the tissue's basal response, the test compounds were incubated for 30 minutes and a new contraction was induced. The concentration that produces a 50% inhibition (IC50) versus the basal response was calculated. The experiment was repeated at least two times and the mean was calculated.

Test [2] has as its system arterial pressure in conscious spontaneously hypertensive rats. The experiment in a line: Lowering of the arterial pressure in conscious spontaneously hypertensive rats (Test 2). Particulars: conscious spontaneously hypertensive male rats, caudal artery, at least 4 animals. It is filed as in vivo, rat. The method, then: Test 2: Lowering of the arterial pressure in conscious spontaneously hypertensive rats.
Spontaneously hypertensive male rats (b.w. 200-250 g) were used. Diastolic and systolic arterial pressure were measured at the caudal artery using a sphygnomanometer (Letica 5007 and 5007/4) attached to the animal's tail. To ensure rapid and reliable data, animals were placed on a heating plate at 37° C., with the aim of producing a vasodilatation that ensured better fixation of the rat tail to the transducer chamber. During the experiment, rats were conscious and fixed by a clamp. The test products were administered orally. Arterial pressure was measured every 60 minutes over a period of 4 hours and 10 minutes before the administration of the test compound. […]

Test [3] deals with isolated guinea pig tracheal spirals. The experiment in a line: Direct relaxation of isolated guinea pig tracheal spirals (Test 3). Particulars: Cavia porcellus; 50% of maximum relaxation (isoproterenol 1×10^-6 M = maximum); isolated guinea pig tracheae; 37° C., pH 7.4; mean of at least two experiments. The method, then:
Test 3 -Direct relaxation of isolated guinea pig tracheal spirals.
Tracheae were extracted from male guinea pigs of (b.w. 400 g) that had been stunned and exanguinated. Then, tracheae were cut in zigzag sections and placed in an isolated organ bath (Letica) containing Krebs-Henseleit solution at 37° C., pH 7.4, continuously bubbled with carbogen (95% O2 and 5% CO2). The relaxation of the tracheae was measured using an isometric force transducer. The basal tension was 0.5 g. The test compounds were cumulatively added to the bath and the effective concentration that produced 50% of the maximum relaxation (EC50) was calculated. The maximum relaxation was taken to be the relaxation induced by isoproterenol at 1×10^-6 M. The experiment was repeated at least two times and the mean was calculated.

A word on the IC50: it is the midpoint of a concentration-inhibition curve. Lower therefore signals higher potency. As usually defined, the EC50 is the concentration at which the effect is half-maximal. Read a low EC50 as greater potency. For `CC1(C)CC(c2cccc[n+]2[O-])c2cc(C#N)ccc2C1=O` (racemic) [Compound 12, (±)-2,2-Dimethyl-4-(N-oxide-2-pyridyl)-1-oxo-1,2,3,4-tetrahydronaphthalen-6-carbonitrile], the IC50 in test [1] came to 200 nM. In test [2] (1 mg/Kg p.o. (footnote *)), the “Pressure Drop ± SEM” value amounted to 95 ± 9 mm Hg. In addition, the 50% effective concentration (EC50) in test [3] came to 3000 nM.
The compound `CC1(C)C=C(c2cccc[n+]2[O-])c2cc(Br)ccc2C1=O` [Compound 4, 6-Bromo-1,2-dihydro-2,2-dimethyl-4-(N-oxide-2-pyridyl)naphthalen-1-one] came in with an IC50 in test [1] of 800 nM. In addition, the “Pressure Drop ± SEM” value in test [2] (0.1 mg/Kg p.o.) is on record as 53 ± 8 mm Hg. In test [3], this compound gave an EC50 of 200 nM.
The corresponding values for `CC1(C)C=C(c2cccc[n+]2[O-])c2cc(C#N)ccc2C1=O` [Compound 10, 1,2-Dihydro-2,2-dimethyl-4-(N-oxide-2-pyridyl)-1-oxonaphthalen-6-carbonitrile] are 900 nM, 53 ± 15 mm Hg and 200 nM.
For `CC1(C)C=C(c2cccc[n+]2[O-])c2cc(C(F)(F)C(F)(F)F)ccc2C1=O` [Compound 15, 1,2-Dihydro-2,2-dimethyl-4-(N-oxide-2-pyridyl)-6-pentafluoroethylnaphthalen-1-one] the same measures were 600 nM, 98 ± 20 mm Hg and 100 nM.
The corresponding values for `CC1(C)C=C(c2cccc[n+]2[O-])c2cc(Cl)c(Cl)cc2C1=O` [Compound 18] are 500 nM, 74 ± 42 mm Hg and 200 nM.
